Measured values reported in patent US7691563B2, “Method for alleviating pain using sphingosine-1-phosphate and related compounds, and assays for identifying such compounds” (Sanofi-Aventis Pharma GmbH, priority 2003, dated 2010).

System: adenylyl cyclase (AC)
Assay: AC activity of HeLa cell lysates after treatment of cells
Assay type: cell-based, human
Conditions: HeLa cells
Protocol: Panel B: Adenylyl cyclase activity of HeLa cell lysates was measured in the absence and presence of serum as described in Materials and Methods section. The Gsα* (80 nM; grey bars)- and forskolin (100 μM; black bars)-stimulated specific activities of ACV were 124±10 pmol/mg/min and 464±89 pmol/min/mg, respectively. The basal activity was 11.75±2 pmol/mg/min. The mean ±SE of at least 2 experiments each done in triplicates is shown. Student T test: *p<0.001.
Panel E: Serum-starved HeLa cells were treated with sense, antisense, and 3M-as ODNs as described above. After 24 hours the cells were incubated for 30 minutes with 10% FBS. Cells were harvested and AC activity in presence of Gαs* (80 nM; grey bars) and forskolin (100 μM; black bars) was determined as described above. Data from at least 3 experiments measured in triplicates are presented as the mean±SEM. Student T test: *p<0.01, **p<0.05.
Panel B: Serum-starved HeLa cells were treated for varying times with 0.5 μM S1P. Cells were harvested and AC activity in presence of 80 nM Gαs* was determined as described in Material and Methods. Data from at least 4 experiments measured in triplicates are presented as the mean ±SE.
Panel C: Serum-starved HeLa cells were treated with sense, antisense, and 3M-as ODNs as described in the Materials and Methods section. After 24 hours the cells were incubated for the indicated times with 0.5 μM S1P. Cells were harvested and AC activity in presence of Gαs* (80 nM) was determined as described above. Data are presented as the mean ±SEM of three determinations.
Panel A: Serum-starved HeLa cells were treated with 0.5 μM S1P for 3 (grey bars) or 60 (black bars) minutes. Prior incubation with S1P the cells were incubated for 24 hours with […] pertussis toxin (PTX). AC activity in was determined presence of 80 nM Gαs*. Data from at least 2 experiments measured in triplicates are presented as the mean ±SE.
Panel B: Serum-starved HeLa cells were treated with 0.5 μM S1P. Prior incubation with S1P the cells were incubated for 20 minutes with 10 μM U73122, R031-8220, BAPTA-AM or U0126. AC activity in was determined presence of 80 nM Gαs*. Data from at least 2 experiments measured in triplicates are presented as the mean ±SE.
Spinal cords were lysed in 25 mM Hepes, pH 7.4, 1 mM EGTA and cell membranes were prepared as described by Kassis and Fishman. Aliquots were stored at −80° C. until use. AC activity assays were performed in a volume of 100 μl for 15 min at room temperature in the presence of 100 μM MgCl2 as previously described (Patel et al., 2002). Gsα* (80 nM) or forskolin (100 μM) were used to stimulate AC enzyme activity in membranes (10 μg protein).
The sequences of the oligodeoxynucleotides (ODNs) were chosen as published previously (Scholich et al., 2001). Sense: 5′-CTGTTCATGCCGGTT-3′, antisense: 5′-AACCGGCATGAACAG-3′, and antisense ODN harboring three mutations (3M-as; mutations are underlined): 5′-AATCCGTATGAACAC-3′. HeLa-cells were plated on 35 mm dishes (300,000 cells) and grown in DMEM medium (Gibco, Karlsruhe, Germany) containing 10% FBS and 1% penicillin/streptoMycin for 24 hours. The ODNs (3 μM each) were introduced into the cells by transfections using Tfx20 (Promega, Madison, Wis.) in 1 ml serum-free medium according to the instructions of the manufacturer. Two hours later, 1 ml DMEM (Gibco, Karlsruhe, Germany) containing 10% FBS was added. The cells were then incubated for 6 hours. Then the medium was exchanged against serum-free DMEM (Gibco, Karlsruhe, Germany), followed by an incubation for 16 hours in serum-free DMEM (Gibco, Karlsruhe, Germany) before being treated with 10% serum or […] S1P. The cells were then used for Western blots by adding boiling 1× Laemmli buffer or they were havested for AC activity assays as described above.

CCCCCCCCCCCCC/C=C/[C@@H](O)[C@@H](N)COP(=O)(O)O [S1P, Sphingosine-1-Phosphate]
Gαs-stimulated AC activity (0.5 μM S1P): reduced
time to first decrease of Gαs-stimulated AC activity (after incubation with S1P): ≤ 3 min
